Experimental findings from PubChem BioAssay (NCI) are described below.

Holding throughout (assay): NCI-60 cell line screen, 48 h
For test [1], the system named is HCT-15 colon.
The subject of test [2] is M14 melanoma.
The test system of test [3] is SNB-19 CNS.
Test [4] concerns MCF7 breast.
For test [5], the system named is CAKI-1 renal.
Test [6] has as its system SK-MEL-2 melanoma.
Test [7] has as its system HCT-116 colon.
The subject of test [8] is OVCAR-5 ovarian.
The subject of test [9] is SK-MEL-28 melanoma.
The test system of test [10] is BT-549 breast.
In test [11] the test system is IGROV1 ovarian.
The subject of test [12] is ACHN renal.
Test [13] concerns UO-31 renal.
For test [14], the system named is HS 578T breast.
For test [15], the system named is SF-295 CNS.
Test [16] concerns SK-MEL-5 melanoma.
Test [17] deals with 786-0 renal.
Test [18] has as its system LOX IMVI melanoma.
For test [19], the system named is OVCAR-4 ovarian.
Test [20] has as its system K-562 leukemia.

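48-hour exposure; five concentrations; linearly interpolated endpoints. TGI: concentration producing complete growth inhibition.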

Regarding `CC(C)[Si]1(C(C)C)OCC2OC(n3ccc(=O)[nH]c3=O)C([Se]c3ccccc3)C2O[Si](C(C)C)(C(C)C)O1` (centres undefined), the TGI was 16.3 µM in test [1]; 21.8 µM in [2]; 0.677 µM in test [3]; 8.27 µM in test [4]; 24.3 µM in test [5]; 20.1 µM in [6]. For the same compound, the TGI came to 7.16 µM in test [7]; 22.8 µM in [8]; 12.5 µM in test [9]; 23.7 µM in test [10]; 9.49 µM in test [11]; 6.59 µM in [12]. For the same compound, the TGI in [13] amounted to 21.5 µM; in [14] it was 5.46 µM; in test [15], 18 µM; in test [16], 9.59 µM; in test [17] it was 7.77 µM; in [18] it was 2.45 µM. Further, the TGI in [19] was found to be 9.67 µM.

With `CC(=O)/C(=C\I)c1ccccc1`, the TGI in test [20] is 4.61 µM; in test [1] it was 3.35 µM; in test [2] it was 4.4 µM; in [3], 24.5 µM; in test [4], 4.05 µM; in test [6], 4.75 µM. Moreover, the TGI worked out at 4.65 µM in test [7]; 2.99 µM in [8]; 10.4 µM in [9]; 3.39 µM in test [10]; 4.25 µM in test [11]; 10.3 µM in [13]. For the same compound, the TGI was 40.5 µM in [14], 33.7 µM in test [15], 4.13 µM in [17] and 3.59 µM in test [18].

As to `C=C1C(=O)O[C@H]2C1C[C@H](O)[C@@]1(C)OC1CC[C@@]1(C)O[C@H]21` (some centres undefined), the TGI in test [20] was found to be 19.7 µM; in [1], 40.3 µM; in test [2], 30.6 µM; in [4], 29.5 µM; in test [5], 33.5 µM; in [6], 55.3 µM. Further, the TGI in test [7] turned out to be 30.2 µM; in test [8], 31.5 µM; in test [9], 35.9 µM; in test [10], 26.9 µM; in test [11] it was 31 µM; in test [12] it was 34.2 µM. Also, the TGI is 31 µM in test [13]; more than 100 µM in [14]; more than 100 µM in [15]; 35.4 µM in test [16]; 37.1 µM in [17]; 29.6 µM in [19].

Regarding `Cc1ccc(S(=O)(=O)N2CCSCCSCCSCCN(S(=O)(=O)c3ccc(C)cc3)CC2)cc1`, the TGI in test [20], in [2], in [3], in [4], in test [6] and in test [7] was more than 100 µM throughout. In addition, the TGI in test [8], in [9], in test [10], in test [11], in [12] and in [13] was more than 100 µM in each case. Also, the TGI in test [14], in [15], in test [16], in test [17] and in [19] was more than 100 µM throughout.

Regarding `Nc1ccccc1C(=O)N=Nc1c(O)[nH]c2ccccc12`, the TGI in test [20], in [1], in test [2], in test [3], in test [4] and in test [5] was more than 100 µM throughout. For the same compound, the TGI in test [6], in [7], in [8], in test [10], in [11] and in [12] was more than 100 µM each time. In addition, the TGI in test [13] is more than 100 µM; in test [14], 73.8 µM; in test [15], more than 100 µM; in [16], more than 100 µM; in [17] it was more than 100 µM; in [19] it was more than 100 µM.

For `Cc1cn(C2CC(N=[N+]=[N-])C(COP(=O)(O)OCC3OC(n4cc(F)c(=O)[nH]c4=O)CC3O)O2)c(=O)[nH]c1=O` (centres undefined), the TGI is more than 65.7 µM in [20]; more than 100 µM in test [1]; more than 100 µM in test [2]; more than 31.6 µM in [3]; more than 100 µM in [4]; more than 100 µM in test [5]. The TGI in test [6] is more than 100 µM; in test [7] it was more than 100 µM; in test [8] it was more than 100 µM; in [9] it was more than 100 µM; in test [10] it was more than 100 µM; in [11] it was 9.57 µM. Further, the TGI in test [12], in [13], in [14], in test [15], in test [16] and in test [17] was more than 100 µM each time. In test [18], this compound gave a TGI of more than 100 µM.

Consider `O=c1[nH][nH]c(=O)c2c1ccc1oc3ccccc3c12`, for which the TGI in test [20], in [2], in [3], in [4], in test [5] and in test [6] was more than 100 µM each time. Besides, the TGI in [7], in test [8], in [9], in test [10], in test [11] and in test [12] was more than 100 µM in each case. Further, the TGI in test [13], in test [14], in test [15], in test [16], in [17] and in test [19] was more than 100 µM in each case.

`CCOC(=O)c1nc2ccc(C(F)(F)F)cc2nc1Nc1ccc(OC)cc1`: the TGI in [20], in test [1], in test [2], in test [3], in test [4] and in [6] was more than 100 µM throughout. For the same compound, the TGI is more than 100 µM in [7]; more than 100 µM in [8]; more than 100 µM in test [9]; 86.4 µM in [10]; more than 100 µM in test [11]; more than 100 µM in test [12]. The TGI was more than 100 µM in test [13]; more than 100 µM in [14]; 77.6 µM in test [15]; more than 100 µM in [16]; more than 100 µM in test [17]; more than 100 µM in test [18]. Moreover, the TGI in test [19] was 49.1 µM.
